The supplement of paper PMC10307832

How the values were obtained:
Assay in all cases: relative viability (nuclei count vs DMSO), 5 days (fraction); higher = more cells survive
SW 1573 = system: SW 1573
Method in brief: (§1)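 Lung cancer cell lines in 1536-well plates were dosed by pin tool the day after seeding, either with one drug alone or with a fixed anchor-drug dose plus five library-drug doses (not always all listed) in √10 steps. After 5 days, cells were fixed and their nuclei stained in one step (final 0.05% Triton X-100, 1% formaldehyde, 1 ug/ml Hoechst), then counted on 4× images. Relative viability is the nuclei count in treated wells divided by that in vehicle wells. Values are medians of duplicate plates.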

LU99A = system: LU99A
Method in brief: as §1

LC-2-ad = system: LC-2-ad
Method in brief: as §1

NCI-H650 = system: NCI-H650
Method in brief: as §1

NCI-H1437 = system: NCI-H1437
Method in brief: as §1

NCI-H1734 = system: NCI-H1734
Method in brief: as §1

SW 900 = system: SW 900
Method in brief: as §1

NCI-H2023 = system: NCI-H2023
Method in brief: as §1

BEN = system: BEN
Method in brief: as §1

NCI-H2126 = system: NCI-H2126
Method in brief: as §1

NCI-H2170 = system: NCI-H2170
Method in brief: as §1

NCI-H727 = system: NCI-H727
Method in brief: as §1

EMC-BAC-2 = system: EMC-BAC-2
Method in brief: as §1

NCI-H1915 = system: NCI-H1915
Method in brief: as §1

NCI-H1755 = system: NCI-H1755
Method in brief: as §1

NCI-H3122 = system: NCI-H3122
Method in brief: as §1

NCI-H358 = system: NCI-H358
Method in brief: as §1

HOP-62 = system: HOP-62
Method in brief: as §1

NCI-H1563 = system: NCI-H1563
Method in brief: as §1

HCC-15 = system: HCC-15
Method in brief: as §1

NCI-H1395 = system: NCI-H1395
Method in brief: as §1

Work on `CCNC(=O)c1noc(-c2cc(C(C)C)c(O)cc2O)c1-c1ccc(CN2CCOCC2)cc1` [Luminespib] + COc1cc2c(Oc3ccc(NC(=O)C4(C(=O)Nc5ccc(F)cc5)CC4)cc3F)ccnc2cc1OCCCN1CCOCC1 [Foretinib] (partner 0.25 µM) yielded a relative viability (SW 1573; first compound 0.002 µM) of 0.91, a relative viability (SW 1573; first compound 0.006325 µM) of 0.766 and a relative viability (SW 1573; first compound 0.02 µM) of 0.521. It also gave a relative viability (SW 1573; first compound 0.06325 µM) of 0.148, a relative viability (SW 1573; first compound 0.2 µM) of 0.119 and a relative viability (LU99A; first compound 0.002 µM) of 0.821. The relative viability (LU99A; first compound 0.006325 µM) was 0.758, the relative viability (LU99A; first compound 0.02 µM) was 0.527 and the relative viability (LU99A; first compound 0.06325 µM) was 0.186. It also gave a relative viability (LU99A; first compound 0.2 µM) of 0.175, a relative viability (LC-2-ad; first compound 0.002 µM) of 1.02 and a relative viability (LC-2-ad; first compound 0.006325 µM) of 0.928. For the same molecule, the relative viability (LC-2-ad; first compound 0.02 µM) was 0.834, the relative viability (LC-2-ad; first compound 0.06325 µM) was 0.321 and the relative viability (LC-2-ad; first compound 0.2 µM) was 0.25. It also gave a relative viability (NCI-H650; first compound 0.002 µM) of 1.09, a relative viability (NCI-H650; first compound 0.006325 µM) of 0.974 and a relative viability (NCI-H650; first compound 0.02 µM) of 0.782. It also gave a relative viability (NCI-H650; first compound 0.06325 µM) of 0.811, a relative viability (NCI-H650; first compound 0.2 µM) of 0.149 and a relative viability (NCI-H1437; first compound 0.002 µM) of 1.3. For the same molecule, the relative viability (NCI-H1437; first compound 0.006325 µM) was 1.2, the relative viability (NCI-H1437; first compound 0.02 µM) was 1.33 and the relative viability (NCI-H1437; first compound 0.06325 µM) was 1.24. The relative viability (NCI-H1437; first compound 0.2 µM) was 0.526, the relative viability (NCI-H1734; first compound 0.002 µM) was 0.9 and the relative viability (NCI-H1734; first compound 0.006325 µM) was 0.915. For the same molecule, the relative viability (NCI-H1734; first compound 0.02 µM) was 0.697, the relative viability (NCI-H1734; first compound 0.06325 µM) was 0.175 and the relative viability (NCI-H1734; first compound 0.2 µM) was 0.171. The relative viability (SW 900; first compound 0.002 µM) was 0.966, the relative viability (SW 900; first compound 0.006325 µM) was 0.742 and the relative viability (SW 900; first compound 0.02 µM) was 0.813. It also gave a relative viability (SW 900; first compound 0.06325 µM) of 0.134, a relative viability (SW 900; first compound 0.2 µM) of 0.117 and a relative viability (NCI-H2023; first compound 0.002 µM) of 0.739. The relative viability (NCI-H2023; first compound 0.006325 µM) was 0.884, the relative viability (NCI-H2023; first compound 0.02 µM) was 0.438 and the relative viability (NCI-H2023; first compound 0.06325 µM) was 0.123. It also gave a relative viability (NCI-H2023; first compound 0.2 µM) of 0.0586, a relative viability (BEN; first compound 0.002 µM) of 0.63 and a relative viability (BEN; first compound 0.006325 µM) of 0.71. It also gave a relative viability (BEN; first compound 0.02 µM) of 0.362, a relative viability (BEN; first compound 0.06325 µM) of 0.531 and a relative viability (BEN; first compound 0.2 µM) of 0.222. It also gave a relative viability (NCI-H2126; first compound 0.002 µM) of 0.865, a relative viability (NCI-H2126; first compound 0.006325 µM) of 1.07 and a relative viability (NCI-H2126; first compound 0.02 µM) of 0.882. It also gave a relative viability (NCI-H2126; first compound 0.06325 µM) of 0.589, a relative viability (NCI-H2126; first compound 0.2 µM) of 0.207 and a relative viability (NCI-H2170; first compound 0.002 µM) of 0.986. It also gave a relative viability (NCI-H2170; first compound 0.006325 µM) of 0.973, a relative viability (NCI-H2170; first compound 0.02 µM) of 0.806 and a relative viability (NCI-H2170; first compound 0.06325 µM) of 0.72. For the same molecule, the relative viability (NCI-H2170; first compound 0.2 µM) was 0.181, the relative viability (NCI-H727; first compound 0.002 µM) was 1.04 and the relative viability (NCI-H727; first compound 0.006325 µM) was 0.834. It also gave a relative viability (NCI-H727; first compound 0.02 µM) of 0.669, a relative viability (NCI-H727; first compound 0.06325 µM) of 0.219 and a relative viability (NCI-H727; first compound 0.2 µM) of 0.332. It also gave a relative viability (EMC-BAC-2; first compound 0.002 µM) of 1.03, a relative viability (EMC-BAC-2; first compound 0.006325 µM) of 0.936 and a relative viability (EMC-BAC-2; first compound 0.02 µM) of 0.942. For the same molecule, the relative viability (EMC-BAC-2; first compound 0.06325 µM) was 0.915, the relative viability (EMC-BAC-2; first compound 0.2 µM) was 0.56 and the relative viability (NCI-H1915; first compound 0.002 µM) was 1.13. For the same molecule, the relative viability (NCI-H1915; first compound 0.006325 µM) was 1.04, the relative viability (NCI-H1915; first compound 0.02 µM) was 1.02 and the relative viability (NCI-H1915; first compound 0.06325 µM) was 1.05. For the same molecule, the relative viability (NCI-H1915; first compound 0.2 µM) was 0.826, the relative viability (NCI-H1755; first compound 0.002 µM) was 0.874 and the relative viability (NCI-H1755; first compound 0.006325 µM) was 0.946. For the same molecule, the relative viability (NCI-H1755; first compound 0.02 µM) was 0.948, the relative viability (NCI-H1755; first compound 0.06325 µM) was 0.555 and the relative viability (NCI-H1755; first compound 0.2 µM) was 0.305. The relative viability (NCI-H3122; first compound 0.002 µM) was 1.07, the relative viability (NCI-H3122; first compound 0.006325 µM) was 0.887 and the relative viability (NCI-H3122; first compound 0.02 µM) was 0.925. It also gave a relative viability (NCI-H3122; first compound 0.06325 µM) of 0.0893, a relative viability (NCI-H3122; first compound 0.2 µM) of 0.0769 and a relative viability (NCI-H358; first compound 0.002 µM) of 0.69. It also gave a relative viability (NCI-H358; first compound 0.006325 µM) of 0.705, a relative viability (NCI-H358; first compound 0.02 µM) of 0.631 and a relative viability (NCI-H358; first compound 0.06325 µM) of 0.06. It also gave a relative viability (NCI-H358; first compound 0.2 µM) of 0.0569, a relative viability (HOP-62; first compound 0.002 µM) of 1.09 and a relative viability (HOP-62; first compound 0.006325 µM) of 1.11. The relative viability (HOP-62; first compound 0.02 µM) was 1.17, the relative viability (HOP-62; first compound 0.06325 µM) was 0.587 and the relative viability (HOP-62; first compound 0.2 µM) was 0.145. It also gave a relative viability (NCI-H1563; first compound 0.002 µM) of 1.01, a relative viability (NCI-H1563; first compound 0.006325 µM) of 0.831 and a relative viability (NCI-H1563; first compound 0.02 µM) of 0.875. The relative viability (NCI-H1563; first compound 0.06325 µM) was 0.452, the relative viability (NCI-H1563; first compound 0.2 µM) was 0.537 and the relative viability (HCC-15; first compound 0.002 µM) was 1.09. For the same molecule, the relative viability (HCC-15; first compound 0.006325 µM) was 0.971, the relative viability (HCC-15; first compound 0.02 µM) was 1.07 and the relative viability (HCC-15; first compound 0.06325 µM) was 0.151. The relative viability (HCC-15; first compound 0.2 µM) was 0.126, the relative viability (NCI-H1395; first compound 0.002 µM) was 1.04 and the relative viability (NCI-H1395; first compound 0.006325 µM) was 0.941. For the same molecule, the relative viability (NCI-H1395; first compound 0.02 µM) was 0.805, the relative viability (NCI-H1395; first compound 0.06325 µM) was 0.568 and the relative viability (NCI-H1395; first compound 0.2 µM) was 0.345.
